Measurements reported in ChEMBL document CHEMBL1201862, “PubChem BioAssay data set” (2004).
The source made the active and inactive calls.

What was measured:
[1] = target: T1, Induced myeloid leukemia cell differentiation protein Mcl-1 (Homo sapiens, UniProt Q07820); assay: MCL1-BIM BH3 interaction inhibitors, dose response, biochemical, fluorescence polarization, BIM-BH3 peptide, 1536-well (AID 2217)
Genome polyprotein = target: T2, Genome polyprotein (Hepatitis C virus, UniProt Q2Q167); assay: HCV core protein dimerization inhibitors, dose response, biochemical, TR-FRET (AID 2159); design: species or system Hepacivirus hominis;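 also: blocks dimerization of HCV core protein measured by TR-FRET between tagged core106 pairs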
T2 sequence (Q2Q167 whole entry): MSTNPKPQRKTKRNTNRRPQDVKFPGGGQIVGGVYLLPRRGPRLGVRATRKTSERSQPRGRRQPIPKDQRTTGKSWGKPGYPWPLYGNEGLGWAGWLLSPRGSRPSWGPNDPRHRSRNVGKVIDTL

[2] = target: T1, Induced myeloid leukemia cell differentiation protein Mcl-1; assay type: functional
[3] = target: Eukaryotic translation initiation factor 4E (Mus musculus, UniProt P63073); assay: eIF4E–eIF4G protein interaction inhibitors, dose response, biochemical, TR-FRET (AID 855); assay type: functional;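 also: potency for disrupting eIF4E binding to eIF4GI seen as loss of FRET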
Bcl-2-like protein 1 = Bcl-2-like protein 1 (Homo sapiens, UniProt Q07817); assay: BCL-XL inhibitors, dose response, selectivity assay for MCL1 inhibitor project, biochemical, fluorescence polarization, 1536-well (AID 2218)
[4] = target: Peroxisome proliferator-activated receptor gamma/Nuclear receptor coactivator 2 (Homo sapiens, UniProt P37231); assay type: functional;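 also: agonist potency for raising coactivator recruitment to the receptor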
[5] = target: Peroxisome proliferator-activated receptor gamma/Nuclear receptor coactivator 1 (Homo sapiens, UniProt P37231); assay type: functional;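 also: agonist potency as compounds enhance coactivator SRC-1 recruitment to PPARgamma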
[6] = target: Peroxisome proliferator-activated receptor gamma/Nuclear receptor coactivator 3 (Homo sapiens, UniProt P37231); assay type: functional;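 also: agonist potency for raising coactivator recruitment to the receptor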
X-box-binding protein 1 = X-box-binding protein 1 (Homo sapiens, UniProt P17861); assay type: functional, Cricetulus griseus;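 also: confirmatory dose-response counter-screen serving a CHOP assay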
[7] = inhibitors of SNCA 5'UTR-driven translation, confirmation, luminescence, H4 neuroglioblastoma cells, dose confirmation (AID 2454); assay type: functional, cell-based;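 also: H4 neuroglioblastoma cells carrying an alpha-synuclein 5'UTR luciferase reporter; potency for inhibition of the luciferase signal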
BJ [8] = assay: cytotoxicity toward BJ-TERT-LT-ST fibroblasts, dose response, cell-based, RAS-independent, luminescence (AID 1935); assay type: functional; details: Homo sapiens;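 also: BJ fibroblasts immortalized with TERT plus LT and ST oncogenes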
[9] = inhibitors of firefly luciferase expression or activity, dose response, H4 neuroglioma cells, luminescence (AID 1990); assay type: functional, cell-based
BJ [10] = assay: cytotoxicity toward BJ-TERT fibroblasts, dose response, cell-based, RAS-independent, luminescence (AID 1933); assay type: functional; details: Homo sapiens
cells = assay type: functional, cell-based
[11] = cytotoxicity in HEK-293T cells, dose response, cytotoxicity control for TCR NF-kB inhibitor project, luminescence, T-cell screen hits (AID 489026); assay type: functional, cell-based;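 also: cells exposed to compound about 14 hours before the viability readout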
BJ [12] = assay: cells; assay type: functional, cell-based; details: Homo sapiens
Paired box protein Pax-8 = Paired box protein Pax-8 (Homo sapiens, UniProt Q06710); assay: inhibitors of PAX8-driven TPO luciferase reporter, dose response, RMG-I cells, cherry-pick (AID 687027); assay type: functional, cell-based;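 also: luciferase reporter driven by Pax8 target thyroperoxidase promoter measured by SteadyGlo luminescence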
[13] = inhibitors of SNCA 5'UTR-driven reporter translation, confirmation, H4 neuroglioma cells, luminescence (AID 1988); assay type: functional, cell-based
[14] = luciferase reporter signal reduction – luminescence, H4-C neuroglioblastoma cells, dose response (AID 2458); assay type: functional, cell-based;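 also: H4 neuroglioblastoma cells stably carrying a luciferase reporter gene fusion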
[15] = Luminescence Cell-Based Dose Response HTS to Identify Inhibitors of 5'UTR Stem-Loop Driven Prion Protein mRNA Translation in H4 Neuroglioblastoma Cells. [Related pubchem assays: 1827 (Project Summary), 1813 (Primary HTS)]; assay type: functional
[16] = cytotoxicity toward DRD oncogenic fibroblasts, dose response, cell-based, non-viral oncogenic, luminescence (AID 1934); assay type: functional; details: Homo sapiens
[17] = non-specific cell cytotoxicity, dose response, cytotoxicity control for PAX8 inhibitor project, plate reader, dry powder samples (AID 743021); assay type: functional, cell-based
[18] = cytotoxicity in HEK-293T cells, dose response, cytotoxicity control for BCR NF-kB inhibitor project, luminescence, B-cell screen hits (AID 489021); assay type: functional, cell-based;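 also: HEK-293T cells carrying an NF-kB luciferase reporter; cells exposed to compound for about 14 hours before viability readout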
[19] = HIV-1 Env-mediated cell fusion inhibitors, dose response, CCR5-tropic Env (AID 2279); assay type: functional

T1 sequence (Q07820 whole entry): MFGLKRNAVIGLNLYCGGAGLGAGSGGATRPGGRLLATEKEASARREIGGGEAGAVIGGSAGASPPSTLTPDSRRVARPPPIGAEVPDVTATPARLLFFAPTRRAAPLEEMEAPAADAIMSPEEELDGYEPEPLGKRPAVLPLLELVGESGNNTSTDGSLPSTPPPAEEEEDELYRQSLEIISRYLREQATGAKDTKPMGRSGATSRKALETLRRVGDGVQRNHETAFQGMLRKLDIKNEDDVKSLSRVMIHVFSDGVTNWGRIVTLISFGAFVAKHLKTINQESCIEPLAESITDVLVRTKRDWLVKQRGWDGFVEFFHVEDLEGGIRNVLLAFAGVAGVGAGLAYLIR
Sequence of Peroxisome proliferator-activated receptor gamma/Nuclear receptor coactivator 2 (P37231 whole entry): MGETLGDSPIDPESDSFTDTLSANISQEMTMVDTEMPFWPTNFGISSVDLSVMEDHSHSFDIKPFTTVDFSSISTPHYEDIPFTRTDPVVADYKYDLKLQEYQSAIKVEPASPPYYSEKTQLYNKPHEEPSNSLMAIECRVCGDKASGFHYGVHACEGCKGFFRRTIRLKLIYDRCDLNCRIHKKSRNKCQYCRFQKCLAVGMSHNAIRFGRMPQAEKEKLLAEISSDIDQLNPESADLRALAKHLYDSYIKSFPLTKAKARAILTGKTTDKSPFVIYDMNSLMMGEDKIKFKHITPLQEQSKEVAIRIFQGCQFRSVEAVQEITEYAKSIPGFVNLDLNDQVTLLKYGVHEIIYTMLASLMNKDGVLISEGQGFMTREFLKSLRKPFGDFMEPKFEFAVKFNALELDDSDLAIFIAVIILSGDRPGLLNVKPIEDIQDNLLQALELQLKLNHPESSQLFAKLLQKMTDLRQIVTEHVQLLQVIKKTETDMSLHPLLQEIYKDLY
Sequence of Peroxisome proliferator-activated receptor gamma/Nuclear receptor coactivator 2 (Q15596 whole entry, further chain): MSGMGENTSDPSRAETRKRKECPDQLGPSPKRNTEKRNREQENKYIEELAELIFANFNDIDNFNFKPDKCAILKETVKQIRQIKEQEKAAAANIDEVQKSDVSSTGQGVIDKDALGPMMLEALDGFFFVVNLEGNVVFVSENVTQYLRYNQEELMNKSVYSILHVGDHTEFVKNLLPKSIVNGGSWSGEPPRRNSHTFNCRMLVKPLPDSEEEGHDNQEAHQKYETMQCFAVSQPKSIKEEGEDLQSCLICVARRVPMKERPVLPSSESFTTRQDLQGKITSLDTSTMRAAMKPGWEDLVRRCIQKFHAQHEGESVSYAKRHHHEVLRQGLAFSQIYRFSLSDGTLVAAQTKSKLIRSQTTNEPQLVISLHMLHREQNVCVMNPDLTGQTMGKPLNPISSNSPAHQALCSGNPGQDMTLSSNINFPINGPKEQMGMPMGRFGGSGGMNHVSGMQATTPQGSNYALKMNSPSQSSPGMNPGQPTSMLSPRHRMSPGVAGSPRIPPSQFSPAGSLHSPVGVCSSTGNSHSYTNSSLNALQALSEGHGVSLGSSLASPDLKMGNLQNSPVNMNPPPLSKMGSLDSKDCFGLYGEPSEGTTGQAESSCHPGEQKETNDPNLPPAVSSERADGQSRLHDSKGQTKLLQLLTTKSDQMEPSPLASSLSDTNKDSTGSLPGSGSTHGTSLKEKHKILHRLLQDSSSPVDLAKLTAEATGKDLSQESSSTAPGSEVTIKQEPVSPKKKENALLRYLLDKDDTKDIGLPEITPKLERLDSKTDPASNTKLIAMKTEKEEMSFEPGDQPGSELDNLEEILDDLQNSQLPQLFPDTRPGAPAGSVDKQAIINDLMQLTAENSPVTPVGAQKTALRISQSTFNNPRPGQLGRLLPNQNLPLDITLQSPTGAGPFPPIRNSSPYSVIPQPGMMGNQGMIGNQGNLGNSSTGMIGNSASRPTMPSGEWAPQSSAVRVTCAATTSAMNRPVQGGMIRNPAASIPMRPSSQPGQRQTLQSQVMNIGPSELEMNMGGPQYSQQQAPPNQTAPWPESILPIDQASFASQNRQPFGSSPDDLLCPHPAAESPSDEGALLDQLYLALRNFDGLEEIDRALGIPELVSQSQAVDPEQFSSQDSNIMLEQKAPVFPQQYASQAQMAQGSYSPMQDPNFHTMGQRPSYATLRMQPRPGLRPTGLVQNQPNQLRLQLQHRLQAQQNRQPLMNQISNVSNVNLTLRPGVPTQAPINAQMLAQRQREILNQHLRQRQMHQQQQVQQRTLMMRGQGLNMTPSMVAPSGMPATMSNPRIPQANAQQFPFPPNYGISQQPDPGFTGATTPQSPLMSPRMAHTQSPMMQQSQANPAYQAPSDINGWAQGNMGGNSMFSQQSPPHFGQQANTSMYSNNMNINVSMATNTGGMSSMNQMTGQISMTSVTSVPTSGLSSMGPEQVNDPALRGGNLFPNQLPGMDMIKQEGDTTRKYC
Sequence of Peroxisome proliferator-activated receptor gamma/Nuclear receptor coactivator 1 (P37231 whole entry): as the sequence (P37231 whole entry) above
Sequence of Peroxisome proliferator-activated receptor gamma/Nuclear receptor coactivator 1 (Q15788 whole entry, further chain): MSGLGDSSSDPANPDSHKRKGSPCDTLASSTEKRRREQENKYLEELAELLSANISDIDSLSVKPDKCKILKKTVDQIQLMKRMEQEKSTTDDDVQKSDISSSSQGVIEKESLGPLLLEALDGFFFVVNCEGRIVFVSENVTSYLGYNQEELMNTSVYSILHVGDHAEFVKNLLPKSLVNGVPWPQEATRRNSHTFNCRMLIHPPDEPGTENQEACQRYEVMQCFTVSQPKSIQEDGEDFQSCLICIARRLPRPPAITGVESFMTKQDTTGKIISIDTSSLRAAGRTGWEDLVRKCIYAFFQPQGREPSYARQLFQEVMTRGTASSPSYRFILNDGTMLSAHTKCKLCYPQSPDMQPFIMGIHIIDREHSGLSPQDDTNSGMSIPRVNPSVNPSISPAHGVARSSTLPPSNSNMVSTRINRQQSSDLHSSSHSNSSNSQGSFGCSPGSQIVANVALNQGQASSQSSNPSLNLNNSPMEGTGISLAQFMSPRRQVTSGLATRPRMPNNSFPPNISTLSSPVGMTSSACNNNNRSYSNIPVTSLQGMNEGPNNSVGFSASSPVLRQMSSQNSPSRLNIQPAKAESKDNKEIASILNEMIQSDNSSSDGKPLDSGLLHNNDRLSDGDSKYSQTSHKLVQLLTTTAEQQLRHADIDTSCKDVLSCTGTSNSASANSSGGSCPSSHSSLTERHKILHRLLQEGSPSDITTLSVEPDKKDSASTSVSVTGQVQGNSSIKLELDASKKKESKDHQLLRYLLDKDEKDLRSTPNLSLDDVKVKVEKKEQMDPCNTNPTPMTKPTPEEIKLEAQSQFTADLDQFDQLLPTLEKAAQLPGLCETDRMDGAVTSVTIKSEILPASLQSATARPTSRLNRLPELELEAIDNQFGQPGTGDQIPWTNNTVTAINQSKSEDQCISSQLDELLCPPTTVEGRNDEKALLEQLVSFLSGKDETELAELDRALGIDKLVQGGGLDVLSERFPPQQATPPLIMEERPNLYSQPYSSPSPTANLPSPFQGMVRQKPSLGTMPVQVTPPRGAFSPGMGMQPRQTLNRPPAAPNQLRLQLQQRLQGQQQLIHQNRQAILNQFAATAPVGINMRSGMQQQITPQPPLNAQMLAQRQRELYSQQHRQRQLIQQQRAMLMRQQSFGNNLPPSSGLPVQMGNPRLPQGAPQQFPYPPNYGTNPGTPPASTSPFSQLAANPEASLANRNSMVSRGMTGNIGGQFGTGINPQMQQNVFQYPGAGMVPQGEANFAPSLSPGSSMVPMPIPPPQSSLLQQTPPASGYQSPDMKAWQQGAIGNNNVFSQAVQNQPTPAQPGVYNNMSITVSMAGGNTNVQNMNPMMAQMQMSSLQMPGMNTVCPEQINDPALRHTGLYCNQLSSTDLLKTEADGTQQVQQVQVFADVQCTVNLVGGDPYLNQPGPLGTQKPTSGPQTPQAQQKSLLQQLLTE
Sequence of Paired box protein Pax-8 (Q06710 whole entry): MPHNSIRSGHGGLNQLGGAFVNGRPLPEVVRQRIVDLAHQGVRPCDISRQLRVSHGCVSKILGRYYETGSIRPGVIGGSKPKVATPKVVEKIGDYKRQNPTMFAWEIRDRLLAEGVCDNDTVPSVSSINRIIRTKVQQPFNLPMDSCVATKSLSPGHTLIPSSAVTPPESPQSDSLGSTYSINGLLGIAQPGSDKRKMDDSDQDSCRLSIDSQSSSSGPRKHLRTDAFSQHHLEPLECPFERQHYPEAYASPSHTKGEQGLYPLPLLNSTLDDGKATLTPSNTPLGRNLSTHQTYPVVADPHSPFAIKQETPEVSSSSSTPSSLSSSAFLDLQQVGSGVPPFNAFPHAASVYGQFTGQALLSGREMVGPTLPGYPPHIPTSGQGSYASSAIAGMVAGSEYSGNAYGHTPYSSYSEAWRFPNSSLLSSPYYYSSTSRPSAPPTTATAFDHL
Sequence of Eukaryotic translation initiation factor 4E (P63073 whole entry): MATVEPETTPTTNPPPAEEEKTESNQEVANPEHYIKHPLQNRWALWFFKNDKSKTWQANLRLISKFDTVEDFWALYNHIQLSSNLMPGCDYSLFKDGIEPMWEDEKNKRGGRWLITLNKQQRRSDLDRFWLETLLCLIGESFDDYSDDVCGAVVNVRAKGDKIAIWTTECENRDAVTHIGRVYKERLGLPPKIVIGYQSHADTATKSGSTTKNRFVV

With COc1ccc(Cc2nnc(NC(=O)Cc3cccs3)s2)cc1OC the IC50 [1] was 5.14 µM (active), the IC50 (Genome polyprotein) was > 49.8 µM (not active) and the IC50 [2] was 1.97 µM (active). The IC50 [3] was 19.1 µM (active) and the IC50 (Bcl-2-like protein 1) was > 109 µM (not active).

For O=C(NCc1nnc(S)n1-c1ccc(Br)cc1)c1ccc(S(=O)(=O)N2CCOCC2)cc1, the EC50 [4] was > 79.4 µM (not active), the EC50 [5] was > 79.4 µM (not active) and the EC50 [6] was > 79.4 µM (not active).

In the case of CC1CCCC(NC(=O)COC(=O)/C=C/c2ccc3c(c2)OCO3)C1C (stereo unspecified), the “Absolute IC50 (XBP1)” value (X-box-binding protein 1) is reported as 10 µM.

In the case of COc1cc(C2C3=C(Nc4ncnn42)c2ccccc2CC3)cc(OC)c1OC (stereo unspecified), the EC50 [7] is reported as 0.348 µM (active), the EC50 (BJ [8]) is reported as 0.498 µM (inconclusive) and the EC50 [9] is reported as < 0.1 µM (active). The EC50 (BJ [10]) was 0.572 µM (active), the EC50 (cells) was 0.452 µM (active) and the IC50 [11] was > 80 µM (inactive). For the same compound, the EC50 (BJ [12]) was 0.659 µM (active), the AC50 (Paired box protein Pax-8) was 2.18 µM (active) and the EC50 [13] was < 0.1 µM (active). For the same compound, the EC50 [14] was 0.21 µM (active), the EC50 [15] was < 0.1 µM (active) and the EC50 [16] was 0.532 µM (active).

For COc1ccc(OCc2cccc(C(=O)Nc3cc(C)on3)c2)cc1, the AC50 (Paired box protein Pax-8) was 4.14 µM (active), the AC50 [17] was 43.9 µM (active) and the EC50 [13] was 9.85 µM (inconclusive). The IC50 [18] was > 80 µM (inactive) and the EC50 [15] was > 60 µM (not active).

For COCCN1C(=O)/C(=C/c2ccc(OCc3ccc(C(=O)O)cc3)c(OC)c2)S/C1=N\c1ccccc1, the IC50 [19] was 40.2 µM (active).

With O=C(N/N=C/c1cnc(N2CCCCC2)s1)c1ccc(Cl)cc1 the EC50 [4] was > 79.4 µM (not active), the EC50 [5] was > 79.4 µM (not active) and the EC50 [6] was > 79.4 µM (not active).

With CC(=C/c1ccco1)/C=N/NC(=O)CSc1nnc(SCc2ccc(C)cc2)s1 the IC50 [18] was > 80 µM (inactive).
